# Source: publication PMC7356956, “1-(1-Arylethylpiperidin-4-yl)thymine Analogs as Antimycobacterial TMPK Inhibitors” (Molecules, 2020)
# Read-outs that look alike come from different tables or passages of the source.
# What was measured:
# [1] = In vitro cytotoxicity assay on MRC-5 fibroblasts; type: cell-based; conditions: human
# Method: (§1) The cytotoxicity of compounds on MRC-5 fibroblasts was performed exactly as previously reported.
# MRC-5 fibroblasts = assay: In vitro cytotoxicity assay on MRC-5 fibroblasts; type: cell-based; conditions: for SI (selectivity index): IC50 (MRC-5)/MIC (H37Rv)
# Method: as §1
# [2] = tested on: M. tuberculosis H37Rv (ATCC 27294); assay: In vitro antituberculosis assay (MIC, broth microdilution); type: cell-based, Mycobacterium tuberculosis; conditions: for MIC: read-out: MIC (H37Rv)
# MtbTMPK [3] = target: T1, MtbTMPK (Mycobacterium tuberculosis, UniProt P9WKE1); assay: MtbTMPK enzymatic assay (spectrophotometric coupled assay); type: biochemical; conditions: for MtbTMPK inhibitory potency, in words: qualitative statement, compared with 3
# T1 sequence (P9WKE1 whole entry, looked up): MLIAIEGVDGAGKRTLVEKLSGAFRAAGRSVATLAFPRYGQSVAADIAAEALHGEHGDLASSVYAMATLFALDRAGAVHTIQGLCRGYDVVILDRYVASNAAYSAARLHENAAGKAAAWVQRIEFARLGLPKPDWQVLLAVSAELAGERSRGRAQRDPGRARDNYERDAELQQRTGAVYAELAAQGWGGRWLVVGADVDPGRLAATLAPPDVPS
# Method: The enzymatic assay was performed as previously reported on the recombinant purified MtbTMPK [14, 33]. As described by Blondin et al., compounds were evaluated by a serial dilution method using the spectrophotometric assay at fixed concentrations of adenosine triphosphate (ATP) (0.5 mM) and thymidine monophosphate (dTMP; 0.05 mM). The reaction medium includes 50-mM Tris-HCl; pH 7.4; 50-mM KCl; 2-mM MgCl2; 0.2-mM nicotinamide adenine dinucleotide (NADH); 1-mM phosphoenol pyruvate and 2 units each of coupling enzymes (lactate dehydrogenase, pyruvate kinase and nucleoside diphosphate kinase). From the experimental data, the IC50 value was calculated using KaleidaGraph 4.5.3.
# MtbTMPK [4] = target: T1, MtbTMPK; design: method as in PMID 29510037, PMID 27614917
# [5] = tested on: M. tuberculosis H37Rv (ATCC 27294); conditions: previously reported values; cited from earlier work
# [6] = cytotoxicity against MRC-5 fibroblasts, read-out: IC50 (MRC-5)
# [7] = ATP 0.5 mM, dTMP 0.05 mM, mean ± SD of at least two measurements, NI: no inhibition at a concentration of 0.2 mM, read-out: IC50 (MtbTMPK)
# [8] = Mycobacterium tuberculosis, minimum concentration required to inhibit >99% growth of M. tuberculosis H37Rv in liquid culture, 7–14 days
molecule,measurement,setting,value
"Cc1cn(C2CCN(CCc3cccc(Oc4ccc(C(F)(F)F)cc4)c3)CC2)c(=O)[nH]c1=O [Compound 21m, 5-Methyl-1-(1-(3-(4-(trifluoromethyl)phenoxy)phenethyl)piperidin-4-yl)pyrimidine-2,4(1H,3H)-dione]",IC50,[1]; [6],> 64 µM
same,SI (selectivity index),MRC-5 fibroblasts,>1.73
same,MIC,[2]; Mycobacterium tuberculosis,37 µM
same,IC50,MtbTMPK [3]; [7],135 ± 22 µM
same,"MtbTMPK inhibitory potency, in words",MtbTMPK [3],significant drop in MtbTMPK inhibitory potency
"1-(1-(3-((3,4-Dichlorobenzyl)oxy)phenethyl)piperidin-4-yl)-5-methylpyrimidine-2,4(1H,3H)-dione [Compound 21p]",IC50,MRC-5 fibroblasts; cytotoxicity against MRC-5 fibroblasts,4.22 µM
same,MIC,"[2]; minimum concentration required to inhibit >99% growth of M. tuberculosis H37Rv in liquid culture, 7–14 days",12.5 µM
"c1ccc(Oc2cccc(CCN3CCC(c4ccccc4)CC3)c2)cc1 [Compound 27, 1-(3-Phenoxyphenethyl)-4-phenylpiperidine]",IC50,[1],8.06 µM
same,SI (selectivity index),MRC-5 fibroblasts,1.29
same,"cytotoxicity (MRC-5), in words","MRC-5 fibroblasts; qualitative statement, relative to antimycobacterial activity",equipotent cytotoxicity
same,MIC,[2]; [8],6.25 µM
same,"antimycobacterial activity (H37Rv), in words",[2]; qualitative statement,potent antimycobacterial activity
same,"MtbTMPK inhibitory potency, in words",MtbTMPK [3],complete loss of the inhibitory potency
same,IC50,"MtbTMPK [3]; read-out: IC50 (MtbTMPK), ATP 0.5 mM, dTMP 0.05 mM, mean ± SD of at least two measurements, NI: no inhibition at a concentration of 0.2 mM",> 200 µM
"Cc1cn(C2CCCN(CCc3cccc(Oc4ccccc4)c3)C2)c(=O)[nH]c1=O (centres unmarked) [Compound 23, 5-Methyl-1-(1-(3-phenoxyphenethyl)piperidin-3-yl)pyrimidine-2,4(1H,3H)-dione]",IC50,[1],21.8 µM
same,MIC,[2]; [8],> 50 µM
same,IC50,MtbTMPK [3],192 ± 53 µM
same,loss/decrease in MtbTMPK inhibitory potency relative to 3,MtbTMPK [3]; compared with compound 3,> 10 fold
"Cc1cn(C2CCN(CCc3cccc(Oc4ccc(Cl)c(Cl)c4)c3)CC2)c(=O)[nH]c1=O [Compound 21g, 1-(1-(3-(3,4-Dichlorophenoxy)phenethyl)piperidin-4-yl)-5-methylpyrimidine-2,4(1H,3H)-dione]",IC50,[1]; [6],5.66 µM
same,SI (selectivity index),MRC-5 fibroblasts,0.30
same,MIC,[2]; Mycobacterium tuberculosis,19 µM
same,IC50,MtbTMPK [3]; [7],45 ± 2 µM
"Cc1cn(C2CCN(CCc3ccccc3Oc3ccccc3)CC2)c(=O)[nH]c1=O [Compound 21c, 5-Methyl-1-(1-(2-phenoxyphenethyl)piperidin-4-yl)pyrimidine-2,4(1H,3H)-dione]",IC50,[1]; [6],26.8 µM
same,SI (selectivity index),MRC-5 fibroblasts,0.54
same,MIC,[2]; Mycobacterium tuberculosis,50 µM
same,IC50,MtbTMPK [3]; [7],100 ± 15 µM
same,"MtbTMPK inhibitory potency, in words",MtbTMPK [3],negative effect on the inhibitory activity
"Cc1cn(C2CCN(CCc3ccccc3)CC2)c(=O)[nH]c1=O [Compound 21a, 5-Methyl-1-(1-phenethylpiperidin-4-yl)pyrimidine-2,4(1H,3H)-dione]",IC50,[1]; [6],> 64 µM
same,MIC,[2]; Mycobacterium tuberculosis,> 50 µM
same,IC50,MtbTMPK [3]; [7],680 ± 90 µM
same,loss/decrease in MtbTMPK inhibitory potency relative to 3,MtbTMPK [3]; compared with compound 3,40 fold
"Cc1ccc(Oc2cccc(CCN3CCC(n4cc(C)c(=O)[nH]c4=O)CC3)c2)cc1 [Compound 21f, 5-Methyl-1-(1-(3-(p-tolyloxy)phenethyl)piperidin-4-yl)pyrimidine-2,4(1H,3H)-dione]",IC50,[1]; [6],8.42 µM
same,SI (selectivity index),MRC-5 fibroblasts,0.44
same,MIC,[2]; Mycobacterium tuberculosis,19 µM
same,IC50,MtbTMPK [3]; [7],49 ± 7 µM
"Cc1cn(C2CCN(CCc3ccc(-c4ccccc4)cc3)CC2)c(=O)[nH]c1=O [Compound 21b, 1-(1-(2-([1,1’-Biphenyl]-4-yl)ethyl)piperidin-4-yl)-5-methylpyrimidine-2,4(1H,3H)-dione]",IC50,[1]; [6],22.2 µM
same,MIC,[2]; Mycobacterium tuberculosis,> 50 µM
same,IC50,MtbTMPK [3]; [7],> 200 µM
same,"MtbTMPK inhibitory potency, in words",MtbTMPK [3],complete loss of enzyme inhibitory potency
"Cc1cn(C2CCN(CCc3cccc(OCc4ccccc4Cl)c3)CC2)c(=O)[nH]c1=O [Compound 21o, 1-(1-(3-((2-Chlorobenzyl)oxy)phenethyl)piperidin-4-yl)-5-methylpyrimidine-2,4(1H,3H)-dione]",IC50,[1]; [6],7.08 µM
same,SI (selectivity index),MRC-5 fibroblasts,0.37
same,MIC,[2]; Mycobacterium tuberculosis,19 µM
same,IC50,MtbTMPK [3]; [7],70 ± 9 µM
Cc1cn(C2CCCN(Cc3cccc(Oc4ccccc4)c3)C2)c(=O)[nH]c1=O (centres unmarked) [Compound 1],IC50,"MtbTMPK [4]; read-out: IC50 (MtbTMPK), reported; previously reported values; cited from earlier work",21 µM
"Cc1cn(C2CCN(CCc3cccc(Oc4cccc(Cl)c4)c3)CC2)c(=O)[nH]c1=O [Compound 21j, 1-(1-(3-(3-Chlorophenoxy)phenethyl)piperidin-4-yl)-5-methylpyrimidine-2,4(1H,3H)-dione]",IC50,[1]; [6],25.2 µM
same,SI (selectivity index),MRC-5 fibroblasts,1.33
same,MIC,[2]; Mycobacterium tuberculosis,19 µM
same,improvement of H37Rv growth inhibitory activity relative to 3,[2]; compared with compound 3,two
same,improvement of MtbTMPK inhibitory potency relative to 3,MtbTMPK [3]; compared with compound 3,three
same,"MtbTMPK inhibitory potency, in words",MtbTMPK [3],significant improvement in the inhibitory potency
"Cc1cn(C2CCN(CCc3cccc(Oc4ccc(Cl)cc4)c3)CC2)c(=O)[nH]c1=O [Compound 21h, 1-(1-(3-(4-Chlorophenoxy)phenethyl)piperidin-4-yl)-5-methylpyrimidine-2,4(1H,3H)-dione]",IC50,[1]; [6],5.81 µM
same,SI (selectivity index),MRC-5 fibroblasts,0.46
same,MIC,[2]; Mycobacterium tuberculosis,12.5 µM
same,IC50,MtbTMPK [3]; [7],49 ± 8 µM
same,increase in IC50-value (MtbTMPK) relative to 21j,MtbTMPK [3]; compared with isomer 21j,10 fold
"Cc1cn(C2CCN(C(=O)Cc3cccc(Oc4ccccc4)c3)CC2)c(=O)[nH]c1=O [Compound 26, 5-Methyl-1-(1-(2-(3-phenoxyphenyl)acetyl)piperidin-4-yl)pyrimidine-2,4(1H,3H)-dione]",IC50,[1],> 64 µM
same,MIC,[2]; [8],> 50 µM
same,IC50,MtbTMPK [3],230 ± 63 µM
same,"MtbTMPK inhibitory potency, in words",MtbTMPK [3],weak enzyme inhibition
"Cc1cn(C2CCN(CCc3cccc(Oc4ccc(C#N)cc4)c3)CC2)c(=O)[nH]c1=O [Compound 21k, 4-(3-(2-(4-(5-Methyl-2,4-dioxo-3,4-dihydropyrimidin-1(2H)-yl)piperidin-1-yl)ethyl)phenoxy)benzonitrile]",IC50,[1]; [6],> 64 µM
same,MIC,[2]; Mycobacterium tuberculosis,≥ 50 µM
same,IC50,MtbTMPK [3]; [7],126 ± 10 µM
same,"MtbTMPK inhibitory potency, in words",MtbTMPK [3],significant drop in MtbTMPK inhibitory potency
"Cc1cn(C2CCN(CCc3ccc(Oc4ccccc4)cc3)CC2)c(=O)[nH]c1=O [Compound 21e, 5-Methyl-1-(1-(4-phenoxyphenethyl)piperidin-4-yl)pyrimidine-2,4(1H,3H)-dione]",IC50,[1]; [6],> 64 µM
same,MIC,[2]; Mycobacterium tuberculosis,> 50 µM
same,IC50,MtbTMPK [3]; [7],160 ± 22 µM
same,"MtbTMPK inhibitory potency, in words",MtbTMPK [3],negative effect on the inhibitory activity
"Cc1cn(C2CCN(CCc3cccc(OCc4cccc(Cl)c4)c3)CC2)c(=O)[nH]c1=O [Compound 21q, 1-(1-(3-((3-Chlorobenzyl)oxy)phenethyl)piperidin-4-yl)-5-methylpyrimidine-2,4(1H,3H)-dione]",IC50,[1]; [6],19.8 µM
same,SI (selectivity index),MRC-5 fibroblasts,0.79
same,MIC,[2]; Mycobacterium tuberculosis,25 µM
same,IC50,MtbTMPK [3]; [7],44 ± 2 µM
"Cc1cn(C2CCN(CCc3cccc(Oc4ccccc4)c3)CC2)c(=O)[nH]c1=O [Compound 3, reference compound]",IC50,[1]; [6],> 64 µM
same,SI (selectivity index),MRC-5 fibroblasts,>1.73
same,"MIC (H37Rv), reported",[5],37 µM
same,MIC,[2]; Mycobacterium tuberculosis,37 µM
same,IC50,MtbTMPK [3]; [7],17 ± 2 µM
same,IC50,"MtbTMPK [4]; previously reported values; read-out: IC50 (MtbTMPK), reported; cited from earlier work",11 µM
"COc1ccc(Oc2cccc(CCN3CCC(n4cc(C)c(=O)[nH]c4=O)CC3)c2)cc1 [Compound 21i, 1-(1-(3-(4-Methoxyphenoxy)phenethyl)piperidin-4-yl)-5-methylpyrimidine-2,4(1H,3H)-dione]",IC50,[1]; [6],> 64 µM
same,SI (selectivity index),MRC-5 fibroblasts,>2.56
same,MIC,[2]; Mycobacterium tuberculosis,25 µM
same,IC50,MtbTMPK [3]; [7],34 ± 5 µM
"Cc1cn(C2CCN(CCc3cccc(Oc4ccc([N+](=O)[O-])cc4)c3)CC2)c(=O)[nH]c1=O [Compound 21l, 5-Methyl-1-(1-(3-(4-nitrophenoxy)phenethyl)piperidin-4-yl)pyrimidine-2,4(1H,3H)-dione]",IC50,[1]; [6],> 64 µM
same,SI (selectivity index),MRC-5 fibroblasts,>1.73
same,MIC,[2]; Mycobacterium tuberculosis,37 µM
same,IC50,MtbTMPK [3]; [7],91 ± 10 µM
same,"MtbTMPK inhibitory potency, in words",MtbTMPK [3],significant drop in MtbTMPK inhibitory potency
